Source: patent US8808716B2, “Topical foam composition” (Stiefel Research Australia Pty Ltd, priority 2009, dated 2014)

Assay: accelerated stability study (HPLC) of compatibility of tazarotene with surfactants
Type: physicochemical
Conditions: 50° C.; in hydrophilic ethoxylated fatty alcohol ether surfactant such as Ceteareth-12, in contrast to various lipophilic surfactants
Description: An accelerated stability study (using HPLC) was conducted at 50° C. to measure the compatibility of tazarotene with various surfactants.

Which “tazarotene stability (compatibility with surfactant)” value does the source give for `CCOC(=O)c1ccc(C#Cc2ccc3c(c2)C(C)(C)CCS3)nc1` [tazarotene] here?
Its value is “most stable”.
